# Measured values reported in patent publication US6509003B2, “Reagents for the determination of cerebral regional acetylcholinesterase activity” (Daiichi Pure Chemicals Co., Ltd., priority 1997, dated 2003).
# Like-named read-outs stand apart in the source and are kept apart here.
# Assays:
# AchE [1] = molecular target: T1, AchE (Rattus norvegicus, UniProt P37136); assay: hydrolysis of 14C-labeled compound in 20% rat brain cortex homogenate, radio TLC, with/without BW284c51; conditions: for specificity for AchE in hydrolysis reaction: 14C-labeled compound, from inhibition test with BW284c51
# Experimental: Rat brain cortex was processed into a 20% (w/v) homogenate by use of 0.9% NaCl-10 mM phosphate buffer (pH 7.4).
# central AchE [2] = molecular target: T2, central AchE (Rattus norvegicus, UniProt P37136); assay: radioactivity distribution in the rat brain by quantitative autoradiography after intravenous administration; conditions: 14C-labeled 13b, male white rat, i.v.
# T2 sequence (P37136 32-614): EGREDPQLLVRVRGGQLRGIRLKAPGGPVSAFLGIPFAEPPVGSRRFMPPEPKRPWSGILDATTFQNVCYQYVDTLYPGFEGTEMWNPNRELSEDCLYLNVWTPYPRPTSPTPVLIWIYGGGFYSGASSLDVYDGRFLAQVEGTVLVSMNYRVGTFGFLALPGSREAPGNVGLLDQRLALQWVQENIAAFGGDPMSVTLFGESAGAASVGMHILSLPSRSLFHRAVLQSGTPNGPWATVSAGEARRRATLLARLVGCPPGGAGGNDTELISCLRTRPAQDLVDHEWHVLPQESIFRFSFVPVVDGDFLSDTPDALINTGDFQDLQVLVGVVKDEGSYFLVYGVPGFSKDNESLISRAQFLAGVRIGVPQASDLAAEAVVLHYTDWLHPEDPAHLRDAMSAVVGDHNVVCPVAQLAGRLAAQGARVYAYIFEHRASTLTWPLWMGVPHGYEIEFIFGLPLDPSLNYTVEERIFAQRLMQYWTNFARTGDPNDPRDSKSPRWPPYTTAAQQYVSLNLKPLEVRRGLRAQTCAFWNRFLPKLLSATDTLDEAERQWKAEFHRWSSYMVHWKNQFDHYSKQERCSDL
# AchE [3] = molecular target: T1, AchE; format: biochemical; design: Cerebral cortical tissues were obtained from rats, weighed and homogenized; from tissue; host or cells: rat cerebral cortex homogenate
# Experimental: Cerebral cortical tissues were obtained from rats, weighed and homogenized (90 mg tissue/ml) in 0.1 M phosphate buffer, pH7.4. […]
# central AchE [4] = molecular target: T2, central AchE; assay: radioactivity distribution in the rat brain by dissection method after intravenous administration; format: in vivo; design: from tissue; host or cells: brain of living male rats (in vivo); conditions: male wistar rats, i.v.
# Experimental: After a geometrical isomer (50b) of compound No. 50 obtained in Example 8 (1) had been intravenously administered to groups of male wistar rats, radioactivity distribution in the rat brain was assayed by dissection method.
# central AchE [5] = molecular target: T2, central AchE; assay: radioactivity distribution in the rat brain by autoradiography after intravenous administration; format: in vivo; design: from tissue; host or cells: brain of living male rats (in vivo); conditions: male white rat, i.v.; for migration to the brain: 14C-labeled, autoradiography
# [6] = immediately after administration
# [7] = thirty minutes or more after administration
# [8] = fifteen minutes or more after administration
# [9] = thirty minutes after administration
smiles,measurement,setting,value
"CC(=O)OC1CCN(C)CC1C(O)CC/C=C/I (single isomer, unassigned) [13a]",specificity for AchE in hydrolysis reaction,AchE [1]; rat brain cortex homogenate,80.4%
"CC(=O)OC1CCN(C)CC1C(O)CC/C=C/I (single isomer, unassigned) [13b]",specificity for AchE in hydrolysis reaction,AchE [1]; rat brain cortex homogenate,91.8%
same,reactivity and specificity for AchE (in words),AchE [1]; rat brain cortex homogenate,excellent reactivity and specificity for AchE
same,half-life,"AchE [1]; rat, 20% (w/v) brain cortex homogenate, pH 7.4, half-life of hydrolysis, 14C-labeled (N-methyl) compound, rat brain cortex homogenate, 37°C",~5 min
same,"radioactivity distribution, brain cortex",central AchE [2]; [6],high
same,"radioactivity distribution, corpus striatum",central AchE [2]; [6],low
same,"accumulation of radioactivity, cerebellum",central AchE [2]; [7],low accumulation of radioactivity
same,"accumulation of radioactivity, striatum",central AchE [2]; [7],high accumulation of radioactivity
"COCOC(CC/C=C/[123I])C1CN(C)CCC1OC(C)=O (single isomer, unassigned) [50b]",specificity for AchE,"AchE [3]; 123I-labeled compound, rat cerebral cortical homogenate, 37°C, from inhibition by BW284c51",88.6%
same,"accumulation of radioactivity, cerebellum",central AchE [4]; [8],accumulation of radioactivity was low
same,"accumulation of radioactivity, striatum",central AchE [4]; [8],high accumulation of radioactivity
same,"radioactivity distribution, brain cortex",central AchE [4]; [6],high
same,"radioactivity distribution, striatum",central AchE [4]; [6],low
"C=CC[N+](C)(C)c1ccc(CCC(=O)CCc2ccc([N+](C)(C)CC=C)cc2)cc1.[Br-].[Br-] [BW284c51, reference compound]",hydrolysis on addition of BW284c51,AchE [1]; hydrolysis of 14C-labeled compound No. 13 in rat brain cortex homogenate,considerably inhibited
same,hydrolysis on addition of BW284c51,AchE [3]; hydrolysis of 123I-labeled 50b in rat cerebral cortical homogenate,considerably inhibited
"O.[14CH3]N1CCC(C(O)/C=C/I)C(O)C1 (stereo not drawn) [compound No. 46, N-^14C-methyl-3-hydroxy-4-(l-hydroxy-3-iodo-2-propenyl)piperidine]",migration to the brain,central AchE [5],hardly migrated to the brain
"CC(=O)OC1CN([14CH3])CCC1C(O)/C=C/I (stereo not shown) [compound No. 47, N-^14C-methyl-3-acetoxy-4-(1-hydroxy-3-iodo-2-propenyl)piperidine]",migration to the brain,central AchE [5],commonly migrated to the brain
same,"radioactivity distribution, brain cortex",central AchE [5]; 5 minutes after administration,high
same,"radioactivity distribution, cerebellum",central AchE [5]; 5 minutes after administration,low
same,"radioactivity distribution, corpus striatum",central AchE [5]; 5 minutes after administration,somewhat high
same,"accumulation of radioactivity, cerebellum",central AchE [5]; [9],low accumulation of radioactivity
same,"accumulation of radioactivity, corpus striatum",central AchE [5]; [9],high accumulation of radioactivity
